# Values joined by “and” are separate entries in the source; they are usually repeats but may differ in a detail not shown here. Equal entries are not always repeated.
# How the values were obtained:
# recombinant PP1α = target: T1, recombinant PP1α (Oryctolagus cuniculus, UniProt P62139); assay: Malachite green dephosphorylation of RVxF-containing hybrid pRb peptides by PP1α; format: biochemical
# T1 construct: purchased New England Biolabs, Ipswich, MA
# Source text: Here, we analyzed the effect of 1H4 on the binding of the Tat RVxF sequence to PP1 using hybrid PP1 substrates containing a substrate phosphopeptide linked to RVxF-containing sequences derived from Tat or NIPP1. As the substrate phosphopeptide, we used a retinoblastoma protein-derived HIPR(pS)[…] peptide (pRb) that is efficiently dephosphorylated by PP1 but not by the enzymatically-related PP2A [13]. The pRb peptide was linked to an extended RVxF-containing sequence derived from Tat ([…]) (pRb-Tat peptide) or the central domain of NIPP1 ([…]). To visualize the interaction between pRb-Tat and PP1 we built a computational model of the pRb-Tat peptide with PP1 complex (described in Materials and Methods). Based on this model, the pRb-Tat peptide is able to bind to the RVxF- accommodating groove of PP1 and, at the same time, to reach the active site of PP1 without any tension (Fig. 5A, green spheres; Fig. 5B, gray sticks). The pRb-Tat peptide was efficiently dephosphorylated by PP1 in vitro (Fig. 5C, V0 = 0.31 µM·min^-1). […] Addition of 1H4 at 3-fold molar excess (480 µM) over pRb-Tat (160 µM) inhibited pRb-Tat dephosphorylation and reduced the rate of dephosphorylation (Fig. 5C, V0 = 0.19 µM·min^−1) to the rate of pRb-Tat QACA dephosphorylation (Fig. 5C, V0 = 0.17 µM⋅min^−1). […] To further investigate the effect of 1H4 on the dephosphorylation of the pRb-Tat peptide, we analyzed the initial velocity versus pRb-Tat peptide substrate concentration plots. […] This was expected because the dephosphorylation site and the RVxF-containing sequence were fused into one hybrid substrate and 1H4 interferes with the binding of this substrate to PP1.
# Figure 5 1H4 compound competes with RVxF motif. A. Superimposition of pRb-Tat peptide on the complex of PP1 with Spinophilin. PP1 surface is colored after the atom types. The spinophilin peptide is shown as magenta ribbon and the pRb-Tat peptide as orange ribbon. The Val25 and Phe27 residues of pRb-Tat and the Ile449 and Phe 451 residues of Spinophilin are shown as sticks. The 2-(N-morpholino)-ethanesulfonic acid bound in the active site of PP1 is shown in green spheres. The phosphorylated Ser6 residue of pRb-Tat peptide is shown as sticks. B. Phosphorylated Ser 6 residue binds to the active site of PP1. Comparative superimposition of pRb-Tat peptide over the crystal structure of MES bound in the active site of PP1. Catalytic resides are shown as sticks. MES is shown as green sticks, and the phosphorylated Ser6 residue of pRb-Tat peptide is shown as orange sticks. The pRb-Tat peptide is shown as orange ribbon. C. 1H4 inhibits kinetics of pRb-Tat peptide dephosphorylation by PP1α. Recombinant PP1α was assayed with pRb-Tat (WT or QACA mutant, 120 µM) in the absence or presence of 1H4 as indicated. The reactions were stopped at indicated time points and the phosphate release was quantified by malachite green assay. Initial velocity was calculated by linear regression in Prism. D. 1H4 inhibits kinetics of pRb-cdNIPP dephosphorylation by PP1α. Recombinant PP1α was assayed with pRb-cdNIPP1 in the absence or presence of 1H4 as indicated. Mutant pRb cdNIPP1 pA-RATA was used as negative control. The reactions were stopped at indicated time points and the phosphate release was quantified by malachite green assay. Initial velocity was calculated by linear regression in Prism. […] Initial rates of pRb-Tat peptide dephosphorylation by PP1α were assayed at the indicated concentrations of the substrate in the absence or presence of 300 µM 1H4 or non-HIV-1 inhibitory 1G3. The amount of the released phosphate was quantified with malachite green.
# Malachite green dephosphorylation assays were carried out with the Ser/Thr phosphatase assay kit (Upstate, Lake Placid, NY) using recombinant PP1α (New England Biolabs, Ipswich, MA). […]
# HIV-1 NL4-3 = assay: HIV-1 replication in MT4 cells, reverse transcriptase activity; settings: HIV-1 NL4-3, tested at 2, 10, 25 µM, RT activity over 8 days
# CEM cells = assay: Toxicity by propidium iodide fluorescence in CEM-GFP cells; format: cell-based; settings: Homo sapiens, CCRF-CEM, 3 µM to 45 µM, 24 h
# [1] = system: HIV-1 transcription in CEM-GFP cells; assay: cells; format: cell-based
# T1 sequence (P62139 whole entry): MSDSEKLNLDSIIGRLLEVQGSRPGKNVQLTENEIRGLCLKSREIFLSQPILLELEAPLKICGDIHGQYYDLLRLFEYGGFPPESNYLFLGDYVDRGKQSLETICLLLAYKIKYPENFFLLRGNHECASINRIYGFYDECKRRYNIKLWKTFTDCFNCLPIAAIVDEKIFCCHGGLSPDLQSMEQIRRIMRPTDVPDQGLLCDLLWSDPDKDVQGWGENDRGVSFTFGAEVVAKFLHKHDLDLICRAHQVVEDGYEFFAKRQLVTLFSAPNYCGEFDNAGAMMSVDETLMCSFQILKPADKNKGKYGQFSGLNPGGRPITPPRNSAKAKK
smiles,measurement,setting,value
COCCNC(=O)COC(=O)c1c2c(nc3ccccc13)/C(=C/c1ccc(O)cc1)CCC2 [1H4],Effect on and mode of inhibition of pRb-Tat dephosphorylation by PP1α,"recombinant PP1α; 300 µM compound, Lineweaver-Burk plot",competitive
same,pRB-Tat VMAX,"recombinant PP1α; 300 µM compound, control 16.67, 25% of substrate assumed phosphorylated",18.20
same,V0 of pRb-cdNIPP1 dephosphorylation by PP1α in presence of compound,recombinant PP1α; 1H4 added,0.37 µM·min^-1 and 0.37 ± 0.01 µM·min^-1
same,V0 of pRb-Tat dephosphorylation by PP1α in presence of compound,recombinant PP1α; 1H4 at 3-fold molar excess (480 µM) over pRb-Tat (160 µM),0.19 µM·min^-1 and 0.19 ± 0.01 µM·min^-1
same,Concentration from which HIV-1 replication is inhibited,HIV-1 NL4-3,≥ 10 µM
same,IC50,CEM cells,> 25 µM
same,Percent of inhibition of HIV-1 transcription in CEM GFP cells infected with Ad-Tat,"[1]; 25 µM of each compound, 48 hours",96%
same,IC50,"[1]; Human immunodeficiency virus 1, CEM-GFP, 24 h, read-out: Inhibition of HIV-1 Transcription in CEM-GFP cells (IC50, μM)",10 µM
